Literature values in patent US20100113605A1 (priority 2007, published 2010).
Read-outs that look alike come from different tables or passages of the source.

What was measured:
[1] = target: DAT (Rattus norvegicus, UniProt P23977); settings: for Site of action: 'Intraneuronal' cell continues 'via DAT'; for Pharmacodynamics of effect on synaptic [DA]: [DA] = dopamine concentration, cell wraps, ends with 'increases'; for Firing dependent effect on synaptic [DA]: in vivo
[2] = test system: rat striatal slices; settings: for Percentage increase in [^3H]dopamine release: mean ± SEM (n ≧ 4), NS = not significantly different from basal [^3H]dopamine overflow; for release of [^3H]dopamine from superfused rat striatal slices: low (10^−7M) and high (10^−5M) concentration
[3] = in vivo
[4] = test system: electrically-evoked levels of extracellular dopamine in the nucleus accumbens; settings: 100 nmol icv, 1 day after injection
[5] = test system: extraneuronal dopamine concentrations in the nucleus accumbens
[6] = test system: extraneuronal dopamine in the nucleus accumbens; settings: d-amphetamine 0.5 mg/kg s.c.; tetrodotoxin 1×10^−6M

Chain of DAT (P23977 whole entry, the tested form may be a part): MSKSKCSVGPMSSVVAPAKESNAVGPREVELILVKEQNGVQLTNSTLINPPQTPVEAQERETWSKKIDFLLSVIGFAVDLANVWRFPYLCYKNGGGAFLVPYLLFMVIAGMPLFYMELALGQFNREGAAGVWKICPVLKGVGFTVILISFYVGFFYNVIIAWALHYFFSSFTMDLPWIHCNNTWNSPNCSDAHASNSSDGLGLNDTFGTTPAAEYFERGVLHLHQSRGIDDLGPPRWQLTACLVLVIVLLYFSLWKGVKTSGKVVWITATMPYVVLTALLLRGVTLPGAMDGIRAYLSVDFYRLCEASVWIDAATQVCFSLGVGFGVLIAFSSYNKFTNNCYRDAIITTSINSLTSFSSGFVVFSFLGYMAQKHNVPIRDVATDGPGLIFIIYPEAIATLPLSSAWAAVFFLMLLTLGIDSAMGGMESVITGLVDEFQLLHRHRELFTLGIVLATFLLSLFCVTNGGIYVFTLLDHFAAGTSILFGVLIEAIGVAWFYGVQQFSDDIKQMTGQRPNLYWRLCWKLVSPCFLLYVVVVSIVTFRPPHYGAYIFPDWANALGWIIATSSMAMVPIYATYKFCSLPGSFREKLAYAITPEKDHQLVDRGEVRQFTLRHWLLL

| Structure (SMILES) | Site of action [1] | Pharmacodynamics of effect on synaptic [DA] [1] | Firing dependent effect on synaptic [DA] [1] | Percentage increase in [^3H]dopamine release ([2]; 10^−5M) | Percentage increase in [^3H]dopamine release ([2]; 10^−7M) | Euphoriant/psychostimulant [3] | release of [^3H]dopamine from superfused rat striatal slices [2] | other results |
| --- | --- | --- | --- | --- | --- | --- | --- | --- |
| COC(=O)C(c1ccccc1)C1CCCCN1 (racemic) [Methylphenidate, dl-threo-methylphenidate] | Extraneuronal | Rapid, very large | Yes | 24 ± 7 % | no stimulation | Yes | – | Percentage increase in [^3H]dopamine release ([2]; 10^−5M, listed as methylphenidate): statistically significant increase |
| CC(N)Cc1ccccc1 (centres unmarked) [Amphetamine] | Intraneuronal | Rapid, very large | No | – | – | Yes | – | – |
| CNC(CC(C)C)C1(c2ccc(Cl)cc2)CCC1 (centres unmarked) [BTS 54 354, N-{1-[1-(4-chlorophenyl)cyclobutyl]-3-methylbutyl}-N-methylamine] | – | – | – | – | – | – | did not release | – |
| CC(C)CC(N)C1(c2ccc(Cl)cc2)CCC1 (centres unmarked) [BTS 54 505, 1-[1-(4-chlorophenyl)cyclobutyl]-3-methylbutylamine] | – | – | – | – | – | – | did not release | – |
| CC(NC(C)(C)C)C(=O)c1cccc(Cl)c1 (centres unmarked) [Bupropion, bupropion] | Extraneuronal | Gradual, moderate, | Yes | – | – | – | did not release | – |
| CNC(C)Cc1ccc2c(c1)OCO2 (centres unmarked) [MDMA, methylenedioxymethamphetamine] | Intraneuronal | Rapid, very large | No | – | – | Yes | – | – |
| CN[C@@H](C)Cc1ccccc1 [Methamphetamine, methamphetamine] | Intraneuronal | Rapid, very large | No | 140 ± 10 % | 37 ± 10 % | Yes | dose-dependently released | – |
| CN1C2CCC1C(C(=O)OCc1ccc(N=C=S)cc1)C(c1ccc(Cl)cc1)C2.Cl (stereo not drawn) [RTI-76, 3β-(ρ-chlorophenyl)tropan-2α-carboxylic acid ρ-isothio-cyanatophenylmethyl ester hydrochloride] | – | – | – | – | – | – | – | extracellular concentration of dopamine in the nucleus accumbens, electrically evoked [4]: increases the extracellular concentration of dopamine in the nucleus accumbens in a frequency-dependent manner |
| CC(C)CC(N(C)C)C1(c2ccc(Cl)cc2)CCC1 (centres unmarked) [Sibutramine, sibutramine] | Extraneuronal | Gradual, moderate, | Yes | – | – | No | did not release | increase in extraneuronal concentration of dopamine in the nucleus accumbens ([5]; 2.0 mg/kg ip, freely-moving rats): failed to reach statistical significance; time of maximum increase in extraneuronal dopamine ([5]; 6.0 mg/kg ip): 60 min; maximum increase in extraneuronal concentration of dopamine in the nucleus accumbens ([5]; 6.0 mg/kg ip, at 60 min, freely-moving rats, P<0.001): 231±87% |
| C[C@H](N)Cc1ccccc1 [d-Amphetamine, d-amphetamine] | – | – | – | 138 ± 15 % | 56 ± 9 % | – | dose-dependently released | peak increase in extraneuronal dopamine concentration in the nucleus accumbens ([5]; 0.5 mg/kg ip): 242±89%; peak increase in extraneuronal dopamine concentration in the nucleus accumbens ([5]; 1.5 mg/kg ip): 603±319%; time of maximum increase in extraneuronal dopamine ([5]; both doses, 0.5 and 1.5 mg/kg ip): 40 min; effect of tetrodotoxin in the dialysate on the drug-evoked increase in extraneuronal dopamine [6]: not altered |
